Data as given in patent publication US6787551B2, “Thiazolidinedione derivatives and pharmaceutical composition comprising the same” (Chong Kun Dang Pharmaceutical Corporation, priority 2002, dated 2004).

Legend:
[1] = tested on: differentiated 3T3-L1 cell; assay: 2-Deoxy-D-[2,6-3H] glucose uptake assay; assay type: cell-based; details: differentiated 3T3-L1 cells, 24 h with compound, 0.5 nM insulin; concentration giving 50% of maximum enhancement of insulin activation; read-out: 2-deoxyglucose uptake (EC50 nM)
Protocol: 1) 2-Deoxy-D-[2,6-3H] glucose uptake assay (in differentiated 3T3-L1 cell)
Undifferentiated adipocyte 3T3-L1 cells were inoculated in a 24-well plate and cultivated in a CO2 incubator at 37° C. To induce differentiation of the undifferentiated adipocytes, the cells were then incubated in a differentiation medium. After adding a certain concentration of each of the test compounds to the medium, the cells were again incubated for 24 hours. After removing the medium, the cells were washed with phosphate buffer, and 0.5 nM of insulin in phosphate buffer was added to the washed cells, followed by incubation for 40 minutes. Then, 0.5 uCi of 2-deoxy-D-[2,6-3H] glucose per well was again added to the cells, which were let stand for 4 minutes. Then, the cells were washed with phosphate buffer, and cell lysis buffer was added, so as to dissolve the cell membranes. The cell sample was placed into a liquid scintillation cocktail solution. The radioactivity of the sample was counted by a liquid scintillation counter.

3T3-L1 cells = assay: Triglyceride accumulation assay; assay type: cell-based; details: 4 days with compound, concentration giving 50% of maximum enhancement of rosiglitazone activation
Protocol: 2) Triglyceride accumulation assay (in 3T3-L1 cells)
Undifferentiated adipocyte 3T3-L1 cells were inoculated in a 24-well plate and cultivated in a CO2 incubator at 37° C. To induce differentiation of the undifferentiated adipocytes, the cells were then incubated in a differentiation medium for 48 hours. After adding a certain concentration of each of the test compounds to the differentiation medium, the cells were again incubated for 4 days. Then, the final cell sample was placed into 200 μl of 2-propanol. The amount of triglyceride in the cells were measured by Triglyceride Kit [YEONGDONG PHARMACEUTICAL CO. LTD., Korea] commercially available.

[2] = tested on: mice with diabetes (KK/Ay); assay: Blood glucose- and blood lipid-lowering action in mice with diabetes; assay type: in vivo; details: male KK/Ay mice, daily oral administration for 5 days; for Blood glucose (ED25): dose reducing blood glucose by 25%; for Triglyceride (ED25): dose reducing triglyceride by 25%
Protocol: Male mice with diabetes (KK/Ay: 10 weeks old, 5 animals/group) were housed and given free access to water and food. The animals received a daily oral administration of the test compounds for 5 days. After the last dose, a blood sample was drawn via the orbital sinus.
The plasma was analyzed for blood glucose content using the Glucose-E kit (YEONGDONG PHARMACEUTICAL CO. LTD., Korea), and for triglyceride content using the Triglyceride kit (YEONGDONG PHARMACEUTICAL CO. LTD., Korea).

[3] = tested on: primary cultured rat hepatocytes
Protocol: Hepatocytes isolated from rat were inoculated in a collagen-coated 24 well plate and was incubated in a CO2 incubator at 37° C. for 24 hours. Then, a certain concentration of each of the test compounds was added, and the cells were again incubated for 24 hours. The cells were then incubated in a 0.4% neutral red containing medium for 4 hours and washed once with phosphate buffer. 0.5 ml of a solution of 1% acetic acid-50% ethanol was added to the cells, which were let stand. 200 ul of the cell sample was taken and absorbance was measured at 570 nm. The cytotoxicity assay performed on hepatocytes was measured as 25% toxic concentration (TC25, uM). Then, the safety index, i.e. the TC25 value in the cytotoxicity assay in hepatocyte/the EC50 value in the triglyceride accumulation assay, was calculated.

Substance | EC50 [1] | EC50 (3T3-L1 cells) | Blood glucose (ED25) [2] | Triglyceride (ED25) [2] | Cytotoxicity in hepatocyte (TC25 uM) [3] | Safety index (TC25 nM/EC50 nM) [3]
5-(4-[2-(N-methyl-N-(2-(4-thiophenoxy)pyridinyl)amino)ethoxy]benzyl)-2,4-thiazolidinedione [Ex. 37] | 2.8 nM | 1.2 nM | 0.22 mg/kg | 1.4 mg/kg | 95000 nM | 79167
5-(4-[2-(N-methyl-N-(2-(4-anilinyl)pyridinyl)amino)ethoxy]benzyl)-2,4-thiazolidinedione [Ex. 38] | 10.5 nM | 5.5 nM | 1.5 mg/kg | 7.8 mg/kg | 71000 nM | 12909
5-(4-[2-(N-methyl-N-(2-(4-anilinyl)pyridinyl)amino)ethoxy]benzylidene)-2,4-thiazolidinedione [Ex. 19] | 48.2 nM | 20.1 nM | 3.8 mg/kg | 15.6 mg/kg | 81000 nM | 4030
5-(4-[2(N-methyl-N-(6-(4-anilinyl)pyrimidinyl)amino)ethoxy]benzyl)-2,4-thiazolidinedione [Ex. 21] | 12.8 nM | 7.5 nM | 2.6 mg/kg | 6.2 mg/kg | 81000 nM | 10800
5-(4-[2(N-methyl-N-(6-(4-thiophenoxy)pyrimidinyl)amino)ethoxy]benzyl)-2,4-thiazolidinedione [Ex. 32] | 5.9 nM | 3.2 nM | 1.5 mg/kg | 12.3 mg/kg | 89000 nM | 27813
